# Measurements reported in US5401853A, “Thiadiazole derivatives for the treatment of depressive states” (Laboratorio Farmaceutico C.T. S.r.l., priority 1992, dated 1995).
# Read-outs that look alike come from different tables or passages of the source.
# Columns and labels:
# [1] = test system: mice; assay: Dispair test (Porsolt) in mice; format: in vivo, Swiss strain male mice (CD-1 Charles River); conditions: for immobility duration: 1 hour before test; for minimal effective dose: Dispair test, i.p., read-out: active dosage
# Protocol: This behaviouristic test conceived by Porsolt (1977 --Nature, 266 730-732 is generally utilized to evaluate the antidepressant activity.
# Swiss strain male mice of average weight of 30 g (CD -1 Charles River) casually assigned to the different treatment groups are used.
# The method consists in placing the animal in a plexiglas cylinder 25 cm high and with a diameter of 9 cm filled with water at 24° C. up to a level of 6 cm.
# The test lasts 6 minutes and the time in which the animal lets itself float without reacting is measured starting from the 2nd minute (immobility duration).
# The animals ape treated by intraperitoneal route (injection volume 10 ml/kg) 1 hour before the test.
# The evaluation is carried out in blind. The statistical analysis of the results is carried out where it is possible by means of the T-Student test, otherwise the non parametric test of Mann Whitney is used.
# [2] = Solubility in solvents; format: physicochemical
# [3] = test system: rats; assay: Social Interaction test in rats (anxiolythic activity); format: in vivo, Sprague-Dawley male rats; conditions: for Social Interaction increase (%): 1 hour before test, vs controls
# Description: The behaviouristic Social Interaction test found by FILE was used. (Animal models of psychiatric disorders, vol. 1 Karger, Basel, pp 151-166).
# It consists in an experimental procedure permitting to evaluate the influence of the pharmacological treatment on the spontaneous behaviour of the rat, by means of the social component which in this animal is particularly accentuated.
# Sprague-Dawley male rats weighing about 250 g are used. After a normal stabling period (2 weeks), the animal are isolated in smaller cages (267×207×140 mm surface 410 cm^2) for a period of about 5 days.
# Then the rats are gathered into couples, avoiding that weight difference between the two animals overcomes 10 g and that the couple components had not previously stabled together.
# The couple thus gathered are assigned to the respective treatment group.
# Diazepam was utilized as the positive control drug: 1,25 mg/kg are intraperitoneally administered 30' before carrying out the test.
# The compounds to be tested are administered 1 hour before carrying out the test.
# The box utilized [55×55×30 cm (height)] for the animal observation is white, completely washable and provided with a floor split up into 25 squares.
# A 100 Watt lamp is placed upon the box at 50 cm from the floor. The test is realized in a remote room whose only light source is represented by the lamp lighting the box.
# The evaluation is carried out in blind. The animals are observed indirectly, by means of a mirror suitably placed.
# Evaluated parameters: time passed in Social Interaction (sniffing pursuit, grooming, boxing etc.).
# The box is systematically cleaned up after every test.
# The results are expressed as a function of a percentage increase of Social Interaction of the treated animals in comparison with the controls.
# [4] = Acute toxicity (LD50) in mice; conditions: mouse, in vivo, read-out: LD50 (DL50)
# [5] = Mus musculus, ip, 1 h, 0.5 mg/kg i.p., vs control (dosage 0), read-out: immobility duration < % (decrease)
# [6] = Mus musculus, ip, 1 h, 1 mg/kg i.p., vs control (dosage 0), read-out: immobility duration < % (decrease)
# [7] = Mus musculus, ip, 1 h, 0.25 mg/kg i.p., vs control (dosage 0), read-out: immobility duration < % (decrease)
# [8] = Mus musculus, ip, 1 h, 10 mg/kg i.p., vs control (dosage 0), read-out: immobility duration < % (decrease)
# [9] = Mus musculus, ip, 1 h, 0.1 mg/kg i.p., vs control (dosage 0), read-out: immobility duration < % (decrease)
smiles,measurement,setting,value
COc1ccc(CSc2nnc(NC(C)=O)s2)cc1 [B53],immobility duration,[1]; 0.1 mg/kg i.p.,182 ± 16
same,immobility duration,[1]; 0.5 mg/kg i.p.,165 ± 25
same,immobility duration,[1]; 1 mg/kg i.p.,151 ± 29
same,immobility duration,[1]; 2 mg/kg i.p.,195 ± 31
same,inhibition in vivo at 0.5 mg/kg,[1]; [5],10%
same,inhibition in vivo at 1 mg/kg,[1]; [6],15%
CC(=O)Nc1nnc(SCc2ccc([N+](=O)[O-])cc2)s1 [B45],immobility duration,[1]; 0.1 mg/kg i.p.,182 ± 22
same,immobility duration,[1]; 0.25 mg/kg i.p.,167 ± 26
same,immobility duration,[1]; 0.5 mg/kg i.p.,166 ± 18
same,immobility duration,[1]; 1 mg/kg i.p.,183 ± 17
same,inhibition in vivo at 0.25 mg/kg,[1]; [7],16%
same,inhibition in vivo at 0.5 mg/kg,[1]; [5],16%
"Nc1nnc(SCc2ccccc2)s1 [B16, 2-amino-5-benzylmercapto-1,3,4-thiadiazole]","solubility in alcohols, chloroform, ethyl acetate, acetone",[2],soluble
same,solubility in ether and water,[2],insoluble
same,Social Interaction increase (%),[3]; 0.5 mg/kg,40%
same,Social Interaction increase (%),[3]; 1 mg/kg,67%
same,Social Interaction increase (%),[3]; 2.5 mg/kg,94%
same,Social Interaction increase (%),[3]; 5 mg/kg,51%
same,"shape of dose-response curve, Social Interaction",[3]; 0.5-5 mg/kg,Gaussian shape
same,LD50,[4]; ip,> 600 mg/kg
same,LD50,"[4]; po, per os",> 600 mg/kg
same,immobility duration,[1]; 1 mg/kg i.p.,197 ± 22
same,immobility duration,[1]; 5 mg/kg i.p.,171 ± 23
same,immobility duration,[1]; 10 mg/kg i.p.,132 ± 45
same,immobility duration,[1]; 15 mg/kg i.p.,186 ± 14
same,immobility duration,[1]; 20 mg/kg i.p.,199 ± 16
same,inhibition in vivo at 5 mg/kg,"[1]; Mus musculus, ip, 1 h, 5 mg/kg i.p., vs control (dosage 0), read-out: immobility duration < % (decrease)",16%
same,inhibition in vivo at 10 mg/kg,[1]; [8],35%
same,inhibition in vivo at 15 mg/kg,"[1]; Mus musculus, ip, 1 h, 15 mg/kg i.p., vs control (dosage 0), read-out: immobility duration < % (decrease)",8%
same,minimal effective dose,"[1]; Mus musculus, ip, 1 h",5 to 10 mg/kg
CC(C)Sc1nnc(N)s1 [B35],immobility duration,[1]; 10 mg/kg i.p.,165 ± 42
same,immobility duration,[1]; 15 mg/kg i.p.,194 ± 14
same,immobility duration,[1]; 20 mg/kg i.p.,185 ± 11
same,inhibition in vivo at 10 mg/kg,[1]; [8],17%
same,minimal effective dose,"[1]; Mus musculus, ip, 1 h",10 mg/kg
COc1ccc(CSc2nnc(N)s2)cc1 [B51],immobility duration,[1]; 0.01 mg/kg i.p.,200 ± 19
same,immobility duration,[1]; 0.03 mg/kg i.p.,164 ± 29
same,immobility duration,[1]; 0.1 mg/kg i.p.,166 ± 13
same,immobility duration,[1]; 0.3 mg/kg i.p.,158 ± 24
same,immobility duration,[1]; 1.25 mg/kg i.p.,174 ± 40
same,immobility duration,[1]; 5 mg/kg i.p.,189 ± 15
same,inhibition in vivo at 0.03 mg/kg,"[1]; Mus musculus, ip, 1 h, 0.03 mg/kg i.p., vs control (dosage 0), read-out: immobility duration < % (decrease)",13%
same,inhibition in vivo at 0.1 mg/kg,[1]; [9],12%
same,inhibition in vivo at 0.3 mg/kg,"[1]; Mus musculus, ip, 1 h, 0.3 mg/kg i.p., vs control (dosage 0), read-out: immobility duration < % (decrease)",16%
same,minimal effective dose,"[1]; Mus musculus, ip, 1 h",~0.5 mg/kg
"CC(=O)N(C)c1nnc(SC(C)C)s1 [B39, 2-(N-methyl-N-acethyl)-amino-5-isopropylmercapto-1,3,4-thiadiazole]",immobility duration,[1]; 0.125 mg/kg i.p.,180 ± 19
same,immobility duration,[1]; 0.25 mg/kg i.p.,155 ± 36
same,immobility duration,[1]; 0.5 mg/kg i.p.,169 ± 30
same,immobility duration,[1]; 1 mg/kg i.p.,161 ± 14
same,immobility duration,[1]; 5 mg/kg i.p.,176 ± 28
same,immobility duration,[1]; 10 mg/kg i.p.,204 ± 18
same,inhibition in vivo at 0.25 mg/kg,[1]; [7],18%
same,inhibition in vivo at 0.5 mg/kg,[1]; [5],10%
same,inhibition in vivo at 1 mg/kg,[1]; [6],14%
"CC(=O)Nc1nnc(SCc2ccccc2)s1 [B17, 2-acetylamino-5-benzylmercapto-1,3,4-thiadiazole]",LD50,[4]; ip,> 1000 mg/kg
same,LD50,"[4]; po, per os",> 1000 mg/kg
same,immobility duration,[1]; 0.03 mg/kg i.p.,198 ± 16
same,immobility duration,[1]; 0.06 mg/kg i.p.,159 ± 38
same,immobility duration,[1]; 0.125 mg/kg i.p.,167 ± 22
same,immobility duration,[1]; 0.25 mg/kg i.p.,183 ± 20
same,immobility duration,[1]; 0.5 mg/kg i.p.,182 ± 25
same,immobility duration,[1]; 1 mg/kg i.p.,187 ± 36
same,inhibition in vivo at 0.06 mg/kg,"[1]; Mus musculus, ip, 1 h, 0.06 mg/kg i.p., vs control (dosage 0), read-out: immobility duration < % (decrease)",22%
same,inhibition in vivo at 0.125 mg/kg,"[1]; Mus musculus, ip, 1 h, 0.125 mg/kg i.p., vs control (dosage 0), read-out: immobility duration < % (decrease)",17%
same,inhibition in vivo at 0.25 mg/kg,[1]; [7],10%
same,inhibition in vivo at 0.5 mg/kg,[1]; [5],10%
same,minimal effective dose,"[1]; Mus musculus, ip, 1 h",~0.5 mg/kg
COc1cccc(CSc2nnc(N)s2)c1 [B63],Social Interaction increase (%),[3]; 0.25 mg/kg,14%
same,Social Interaction increase (%),[3]; 0.5 mg/kg,40%
same,Social Interaction increase (%),[3]; 1 mg/kg,70%
same,Social Interaction increase (%),[3]; 2.5 mg/kg,73%
same,immobility duration,[1]; 0.05 mg/kg i.p.,187 ± 34
same,immobility duration,[1]; 0.1 mg/kg i.p.,171 ± 26
same,immobility duration,[1]; 0.25 mg/kg i.p.,159 ± 22
same,immobility duration,[1]; 0.5 mg/kg i.p.,166 ± 25
same,immobility duration,[1]; 1 mg/kg i.p.,174 ± 30
same,immobility duration,[1]; 10 mg/kg i.p.,187 ± 26
same,inhibition in vivo at 0.1 mg/kg,[1]; [9],15%
same,inhibition in vivo at 0.25 mg/kg,[1]; [7],21%
same,inhibition in vivo at 0.5 mg/kg,[1]; [5],18%
same,inhibition in vivo at 1 mg/kg,[1]; [6],14%
"CC(=O)Nc1nnc(SC(C)C)s1 [B36, 2-N-acethyl-5-isopropylmercapto-1,3,4thiadiazole]",immobility duration,[1]; 0.5 mg/kg i.p.,178 ± 33
same,immobility duration,[1]; 1 mg/kg i.p.,159 ± 23
same,immobility duration,[1]; 2.5 mg/kg i.p.,188 ± 16
same,immobility duration,[1]; 5 mg/kg i.p.,196 ± 22
same,immobility duration,[1]; 12.5 mg/kg i.p.,199 ± 15
same,inhibition in vivo at 1 mg/kg,[1]; [6],19%
same,minimal effective dose,"[1]; Mus musculus, ip, 1 h",1 mg/kg
"CN(C)CCCN1c2ccccc2CCc2ccccc21 [imipramine, reference compound]",minimal effective dose,"[1]; Mus musculus, ip, 1 h",20 mg/kg
CSc1nnc(N)s1 [B21],LD50,[4]; ip,> 1000 mg/kg
same,immobility duration,[1]; 20 mg/kg i.p.,187 ± 13
same,immobility duration,[1]; 25 mg/kg i.p.,175 ± 31
same,immobility duration,[1]; 50 mg/kg i.p.,161 ± 26
same,immobility duration,[1]; 60 mg/kg i.p.,176 ± 21
same,immobility duration,[1]; 75 mg/kg i.p.,170 ± 39
same,immobility duration,[1]; 100 mg/kg i.p.,187 ± 25
same,inhibition in vivo at 20 mg/kg,"[1]; Mus musculus, ip, 1 h, 20 mg/kg i.p., vs control (dosage 0), read-out: immobility duration < % (decrease)",8%
same,inhibition in vivo at 25 mg/kg,"[1]; Mus musculus, ip, 1 h, 25 mg/kg i.p., vs control (dosage 0), read-out: immobility duration < % (decrease)",16%
same,inhibition in vivo at 50 mg/kg,"[1]; Mus musculus, ip, 1 h, 50 mg/kg i.p., vs control (dosage 0), read-out: immobility duration < % (decrease)",23%
same,inhibition in vivo at 60 mg/kg,"[1]; Mus musculus, ip, 1 h, 60 mg/kg i.p., vs control (dosage 0), read-out: immobility duration < % (decrease)",16%
same,inhibition in vivo at 75 mg/kg,"[1]; Mus musculus, ip, 1 h, 75 mg/kg i.p., vs control (dosage 0), read-out: immobility duration < % (decrease)",19%
same,inhibition in vivo at 100 mg/kg,"[1]; Mus musculus, ip, 1 h, 100 mg/kg i.p., vs control (dosage 0), read-out: immobility duration < % (decrease)",11%
